Experimental data published in patent US20090068290A1, “BIFEPRUNOX DOSES FOR TREATING SCHIZOPHRENIA” (priority 2006, published 2009).

How the values were obtained:
Type in all cases: in vivo, human
[1] = system: adult subjects with schizophrenia; assay: BPRS psychosis cluster score, Clinical Study Two; settings: LOCF; for Change from Baseline in BPRS Psychosis Cluster Score, Mean (SD) / Change from Baseline in BPRS Psychosis Cluster Score, Median: Risperidone 6 mg, ITT population
Procedure: Rating scale assessments were performed weekly, except for week 5, to measure the change from baseline to endpoint of the PANSS total score. Other assessments included: PANSS positive symptom subscale score, PANSS negative symptom subscale score, PANSS general pschopathology subscale score, BPRS total score, BPRS psychosis score, the CGI-S score, the CGI-I score, responder rates based on the PANSS total score, and the Calgary Depression Scale for Schizophrenia (CDSS). […]
Subjects who completed this study had the option to continue in the long-term. […] Risperidone-treated subjects were titrated from 2 mg to 6 mg daily over a three-day period and were subsequently maintained at 6 mg/day for the remainder of the treatment period. […] Blood samples were also obtained at Screening/Baseline, Week 3, and Week 6 for clinical laboratory assessments.

[2] = system: adult subjects with schizophrenia; assay: BPRS psychosis cluster score, Clinical Study One; settings: Risperidone 6 mg, ITT population
Procedure: (§1) There were five treatment groups in this study. […] Study medication was administered once daily. After Baseline measurements were performed, the titration phase was begun. Bifeprunox treated subjects were titrated up to 5 mg, 10 mg or 20 mg according to a standardized titration schedule (Day 1: 0.125 mg, Day 2: 0.25 mg, Day 3: 0.5 mg, Day 4: 1.0 mg, Day 5: 2.0 mg, Day 6: 5.0 mg, Day 7: 10.0 mg, Day 8: 20 mg). When the assigned dose was reached, subjects were maintained at that dose for the remainder of the six-week treatment period.

[3] = Body weight, Clinical Study Two; settings: Risperidone 6 mg
[4] = system: adult subjects with schizophrenia; assay: PANSS responder rates, Clinical Study One; settings: Risperidone 6 mg; ITT
Procedure: as §1

[5] = system: adult subjects with schizophrenia; assay: PANSS positive subscale score, Clinical Study One; settings: Risperidone 6 mg, ITT
Procedure: as §1
The change in the Positive and Negative Symptom Scale (PANSS) total score, from baseline to endpoint, was the primary outcome measure. Secondary efficacy measures included: PANSS positive, PANSS negative, PANSS general psychopathology (GPP) score, PANSS-derived Brief Psychiatric Rating Scale (BPRS) score, Clinical Global Impressions-Severity of Illness (CGI-S), CGI-Improvement (CGI-I) scores, and responder rates. Safety and tolerability evaluations included extrapyramidal symptoms (EPS), weight gain, lipid profile, and serum prolactin.

For `Cc1nc2n(c(=O)c1CCN1CCC(c3noc4cc(F)ccc34)CC1)CCCC2` [Risperidone, risperidone, reference compound], the “Change from Baseline in BPRS Psychosis Cluster Score, Mean (SD)” value ([1]; Week 1) was −2.3 (2.4), the “Change from Baseline in BPRS Psychosis Cluster Score, Median” value ([1]; Week 1) was −2 and the “Change from Baseline in BPRS Psychosis Cluster Score, Mean (SD)” value ([1]; Week 2) was −3.6 (3.0). The “Change from Baseline in BPRS Psychosis Cluster Score, Median” value ([1]; Week 2) was −4, the “Change from Baseline in BPRS Psychosis Cluster Score, Mean (SD)” value ([1]; Week 3) was −4.3 (3.4) and the “Change from Baseline in BPRS Psychosis Cluster Score, Median” value ([1]; Week 3) was −4. For the same compound, the “Change from Baseline in BPRS Psychosis Cluster Score, Mean (SD)” value ([1]; Week 4) was −4.7 (3.6), the “Change from Baseline in BPRS Psychosis Cluster Score, Median” value ([1]; Week 4) was −5 and the “Change from Baseline in BPRS Psychosis Cluster Score, Mean (SD)” value ([1]; Week 6/Endpoint) was −4.9 (4.0). The “Change from Baseline in BPRS Psychosis Cluster Score, Median” value ([1]; Week 6/Endpoint) was −5, the “mean change (SD) from Baseline to Endpoint in BPRS psychosis cluster score” value ([1]; risperidone 6 mg, ITT) was −4.9 (4.0) and the “Change from Baseline in BPRS Psychosis Cluster Score, Mean (S.D.)” value ([2]; Endpoint LOCF) was −4.1 (3.5). For the same compound, the “Change from Baseline in BPRS Psychosis Cluster Score, Median” value ([2]; Endpoint LOCF) was −4, the “Change from Baseline in BPRS Psychosis Cluster Score, Mean (S.D.)” value ([2]; Week 1, LOCF) was −2.2 (2.7) and the “Change from Baseline in BPRS Psychosis Cluster Score, Median” value ([2]; Week 1, LOCF) was −2. For the same compound, the “Change from Baseline in BPRS Psychosis Cluster Score, Mean S.D.” value ([2]; Week 2, LOCF) was −3.6 (3.2), the “Change from Baseline in BPRS Psychosis Cluster Score, Median” value ([2]; Week 2, LOCF) was −3 and the “Change from Baseline in BPRS Psychosis Cluster Score, Mean (S.D.)” value ([2]; Week 3, LOCF) was −4.1 (3.4). For the same compound, the “Change from Baseline in BPRS Psychosis Cluster Score, Median” value ([2]; Week 3, LOCF) was −4, the “Change from Baseline in BPRS Psychosis Cluster Score, Mean (S.D.)” value ([2]; Week 4, LOCF) was −3.9 (3.3) and the “Change from Baseline in BPRS Psychosis Cluster Score, Median” value ([2]; Week 4, LOCF) was −4. For the same compound, the “Weight, Baseline Mean of subjects with Endpoint change” value [3] was 174.5 lbs, the “Weight, Baseline Mean of subjects with Week 6 change” value [3] was 166.6 lbs and the “Weight, Baseline, Max” value [3] was 404 lbs. The “Weight, Baseline, Mean (SD)” value [3] was 174.3 (58.5) lbs, the “Weight, Baseline, Median” value [3] was 170 lbs and the “Weight, Baseline, Min” value [3] was 82 lbs. For the same compound, the “Weight, Change from Baseline at Endpoint, Max” value [3] was 33 lbs, the “Weight, Change from Baseline at Endpoint, Mean (SD)” value [3] was 3.2 (7.4) lbs and the “Weight, Change from Baseline at Endpoint, Median” value [3] was 2 lbs. The “Weight, Change from Baseline at Endpoint, Min” value [3] was −20 lbs, the “Weight, Change from Baseline at Week 6, Max” value [3] was 33 lbs and the “Weight, Change from Baseline at Week 6, Mean (SD)” value [3] was 4.1 (7.6) lbs. The “Weight, Change from Baseline at Week 6, Median” value [3] was 2 lbs, the “Weight, Change from Baseline at Week 6, Min” value [3] was −12 lbs and the “mean weight change at Endpoint” value [3] was 3.2 lbs. For the same compound, the “PANSS Responder at Endpoint (LOCF), 20% Definition” value [4] was 46 (40) n (%), the “PANSS Responder at Endpoint (LOCF), 25% Definition” value [4] was 34 (29) n (%) and the “PANSS Responder at Endpoint (LOCF), 30% Definition” value [4] was 26 (22) n (%). For the same compound, the “PANSS Responder at Endpoint (LOCF), 35% Definition” value [4] was 15 (13) n (%), the “Change from Baseline in PANSS Positive Subscale Score, Mean (S.D.)” value ([5]; Endpoint LOCF) was −5.3 (4.8) and the “Change from Baseline in PANSS Positive Subscale Score, Median” value ([5]; Endpoint LOCF) was −5. For the same compound, the “Change from Baseline in PANSS Positive Subscale Score, Mean (S.D.)” value ([5]; Week 1, LOCF) was −2.7 (3.4), the “Change from Baseline in PANSS Positive Subscale Score, Median” value ([5]; Week 1, LOCF) was −2 and the “Change from Baseline in PANSS Positive Subscale Score, Mean (S.D.)” value ([5]; Week 2, LOCF) was −4.3 (4.2). For the same compound, the “Change from Baseline in PANSS Positive Subscale Score, Median” value ([5]; Week 2, LOCF) was −4, the “Change from Baseline in PANSS Positive Subscale Score, Mean (S.D.)” value ([5]; Week 3, LOCF) was −5.0 (4.6) and the “Change from Baseline in PANSS Positive Subscale Score, Median” value ([5]; Week 3, LOCF) was −5. For the same compound, the “Change from Baseline in PANSS Positive Subscale Score, Mean (S.D.)” value ([5]; Week 4, LOCF) was −4.9 (4.6) and the “Change from Baseline in PANSS Positive Subscale Score, Median” value ([5]; Week 4, LOCF) was −4.
